Results published in PubChem BioAssay (NCI).
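Each compound was tested at five concentrations against cells in 96-well plates for 48 hours. TGI: total growth inhibition.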

Assays:
Experiment in all cases: NCI anticancer screen, dose series, 48 h
[1] = system: 786-0 renal
[2] = system: A498 renal
[3] = system: A549 NSCLC
[4] = system: ACHN renal
[5] = system: BT-549 breast
[6] = system: CAKI-1 renal
[7] = system: CCRF-CEM leukemia
[8] = system: COLO 205 colon
[9] = system: DU-145 prostate
[10] = system: EKVX NSCLC
[11] = system: HCC-2998 colon
[12] = system: HCT-116 colon
[13] = system: HCT-15 colon
[14] = system: HL-60(TB) leukemia
[15] = system: HOP-62 NSCLC
[16] = system: HOP-92 NSCLC
[17] = system: HS 578T breast
[18] = system: HT29 colon
[19] = system: IGROV1 ovarian
[20] = system: K-562 leukemia
[21] = system: KM12 colon
[22] = system: LOX IMVI melanoma
[23] = system: M14 melanoma
[24] = system: MALME-3M melanoma
[25] = system: MCF7 breast
[26] = system: MDA-MB-231 breast
[27] = system: MDA-MB-435
[28] = system: MDA-N
[29] = system: MOLT-4 leukemia
[30] = system: NCI-H226 lung
[31] = system: NCI-H23 lung
[32] = system: NCI-H460 lung
[33] = system: NCI-H522 lung
[34] = system: NCI/ADR-RES ovarian
[35] = system: OVCAR-3 ovarian
[36] = system: OVCAR-4 ovarian
[37] = system: OVCAR-5 ovarian
[38] = system: OVCAR-8 ovarian
[39] = system: PC-3 prostate
[40] = system: RPMI-8226 leukemia
[41] = system: RXF 393 renal
[42] = system: SF-268 CNS
[43] = system: SF-295 CNS
[44] = system: SF-539 CNS
[45] = system: SK-MEL-2 melanoma
[46] = system: SK-MEL-28 melanoma
[47] = system: SK-MEL-5 melanoma
[48] = system: SK-OV-3 ovarian
[49] = system: SN12C renal
[50] = system: SNB-19 CNS
[51] = system: SR leukemia
[52] = system: SW-620 colon
[53] = system: T-47D breast
[54] = system: TK-10 renal
[55] = system: U251 CNS
[56] = system: UACC-257 melanoma
[57] = system: UACC-62 melanoma
[58] = system: UO-31 renal
[59] = system: SNB-75 CNS

`N#CC1(O)CCCCCCCCCCC1` was tested. Which TGI [1] did it give?
The TGI was over 100 µM.

What about the TGI [2] of the same compound?
Its TGI is over 100 µM.

What about the TGI [3] of the same compound?
Its TGI is over 100 µM.

And the TGI [4]?
The TGI was over 100 µM.

And the TGI [5]?
Its TGI is over 100 µM.

And the TGI [6]?
The TGI was over 100 µM.

What about the TGI [7] of the same compound?
Its TGI is over 100 µM.

What about the TGI [8] of the same compound?
Its TGI is over 100 µM.

And the TGI [9]?
Its TGI is over 100 µM.

And the TGI [10]?
Its TGI is over 100 µM.

And the TGI [11]?
Its TGI is over 100 µM.

What about the TGI [12] of the same compound?
Its TGI is over 100 µM.

And the TGI [13]?
Its TGI is over 100 µM.

What about the TGI [14] of the same compound?
Its TGI is over 100 µM.

And the TGI [15]?
Its TGI is over 100 µM.

And the TGI [16]?
The TGI was over 100 µM.

And the TGI [17]?
Its TGI is over 100 µM.

And the TGI [18]?
The TGI was over 100 µM.

What about the TGI [19] of the same compound?
Its TGI is over 100 µM.

And the TGI [20]?
Its TGI is over 100 µM.

What about the TGI [21] of the same compound?
Its TGI is over 100 µM.

And the TGI [22]?
Its TGI is over 100 µM.

And the TGI [23]?
The TGI was over 100 µM.

And the TGI [24]?
Its TGI is over 100 µM.

And the TGI [25]?
Its TGI is over 100 µM.

What about the TGI [26] of the same compound?
The TGI was over 100 µM.

What about the TGI [27] of the same compound?
Its TGI is over 100 µM.

What about the TGI [28] of the same compound?
The TGI was over 100 µM.

And the TGI [29]?
The TGI was over 100 µM.

What about the TGI [30] of the same compound?
The TGI was over 100 µM.

And the TGI [31]?
The TGI was over 100 µM.

What about the TGI [32] of the same compound?
Its TGI is over 100 µM.

And the TGI [33]?
The TGI was over 100 µM.

And the TGI [34]?
The TGI was over 100 µM.

What about the TGI [35] of the same compound?
The TGI was over 100 µM.

What about the TGI [36] of the same compound?
Its TGI is over 100 µM.

And the TGI [37]?
The TGI was over 100 µM.

What about the TGI [38] of the same compound?
Its TGI is over 100 µM.

What about the TGI [39] of the same compound?
Its TGI is over 100 µM.

What about the TGI [40] of the same compound?
Its TGI is over 100 µM.

And the TGI [41]?
Its TGI is over 100 µM.

And the TGI [42]?
The TGI was over 100 µM.

And the TGI [43]?
Its TGI is over 100 µM.

What about the TGI [44] of the same compound?
The TGI was over 100 µM.

What about the TGI [45] of the same compound?
The TGI was over 100 µM.

What about the TGI [46] of the same compound?
Its TGI is over 100 µM.

What about the TGI [47] of the same compound?
Its TGI is over 100 µM.

What about the TGI [48] of the same compound?
The TGI was over 100 µM.

And the TGI [49]?
Its TGI is over 100 µM.

And the TGI [50]?
The TGI was over 100 µM.

And the TGI [51]?
Its TGI is over 100 µM.

What about the TGI [52] of the same compound?
Its TGI is over 100 µM.

And the TGI [53]?
The TGI was over 100 µM.

And the TGI [54]?
Its TGI is over 100 µM.

And the TGI [55]?
The TGI was over 100 µM.

What about the TGI [56] of the same compound?
Its TGI is over 100 µM.

And the TGI [57]?
The TGI was over 100 µM.

What about the TGI [58] of the same compound?
Its TGI is over 100 µM.

What does the source list for `O=C(/C=C/C(=O)N1CCCC1)N1CCCC1`?
TGI [1]: > 100 µM; TGI [2]: > 100 µM; TGI [3]: > 100 µM; TGI [4]: > 100 µM; TGI [5]: > 100 µM; TGI [6]: > 100 µM; TGI [7]: > 100 µM; TGI [8]: > 100 µM; TGI [9]: > 100 µM; TGI [10]: > 100 µM; TGI [11]: > 100 µM; TGI [12]: > 100 µM; TGI [13]: > 100 µM; TGI [14]: > 100 µM; TGI [15]: > 100 µM; TGI [16]: > 100 µM; TGI [17]: > 100 µM; TGI [18]: > 100 µM; TGI [19]: > 100 µM; TGI [20]: > 100 µM; TGI [21]: > 100 µM; TGI [22]: > 100 µM; TGI [23]: > 100 µM; TGI [24]: > 100 µM; TGI [25]: > 100 µM; TGI [26]: > 100 µM; TGI [27]: > 100 µM; TGI [28]: > 100 µM; TGI [29]: > 100 µM; TGI [31]: > 100 µM; TGI [32]: > 100 µM; TGI [33]: > 100 µM; TGI [34]: > 100 µM; TGI [35]: > 100 µM; TGI [36]: > 100 µM; TGI [37]: > 100 µM; TGI [38]: > 100 µM; TGI [39]: > 100 µM; TGI [40]: > 100 µM; TGI [41]: > 100 µM; TGI [42]: > 100 µM; TGI [43]: > 100 µM; TGI [44]: > 100 µM; TGI [45]: > 100 µM; TGI [46]: > 100 µM; TGI [47]: > 100 µM; TGI [48]: > 100 µM; TGI [49]: > 100 µM; TGI [50]: > 100 µM; TGI [51]: > 100 µM; TGI [52]: > 100 µM; TGI [53]: > 100 µM; TGI [54]: > 100 µM; TGI [55]: > 100 µM; TGI [56]: > 100 µM; TGI [57]: > 100 µM; TGI [58]: > 100 µM

With `COC(=O)Cc1ccc2c(cnn2-c2ccccc2)c1OC` as the compound, how does the TGI [1] read?
The TGI was over 10 µM.

What about the TGI [2] of the same compound?
The TGI was over 10 µM.

What about the TGI [3] of the same compound?
Its TGI is over 10 µM.

And the TGI [4]?
The TGI was over 10 µM.

What about the TGI [5] of the same compound?
The TGI was over 10 µM.

What about the TGI [6] of the same compound?
Its TGI is over 10 µM.

And the TGI [7]?
The TGI was over 10 µM.

And the TGI [8]?
The TGI was over 10 µM.

What about the TGI [9] of the same compound?
The TGI was over 10 µM.

And the TGI [10]?
The TGI was over 10 µM.

What about the TGI [11] of the same compound?
Its TGI is over 10 µM.

What about the TGI [12] of the same compound?
The TGI was over 10 µM.

What about the TGI [13] of the same compound?
The TGI was over 10 µM.

What about the TGI [14] of the same compound?
The TGI was over 10 µM.

And the TGI [15]?
The TGI was over 10 µM.

And the TGI [17]?
Its TGI is over 10 µM.

And the TGI [18]?
The TGI was over 10 µM.

What about the TGI [19] of the same compound?
Its TGI is over 10 µM.

What about the TGI [20] of the same compound?
The TGI was over 10 µM.

And the TGI [21]?
Its TGI is over 10 µM.

And the TGI [22]?
The TGI was over 10 µM.

What about the TGI [23] of the same compound?
The TGI was over 10 µM.

What about the TGI [24] of the same compound?
The TGI was over 10 µM.

And the TGI [25]?
The TGI was over 10 µM.

And the TGI [26]?
Its TGI is over 10 µM.

What about the TGI [27] of the same compound?
Its TGI is over 10 µM.

And the TGI [28]?
Its TGI is over 10 µM.

And the TGI [29]?
Its TGI is over 10 µM.

And the TGI [30]?
The TGI was over 10 µM.

And the TGI [31]?
The TGI was over 10 µM.

What about the TGI [32] of the same compound?
The TGI was over 10 µM.

And the TGI [33]?
Its TGI is over 10 µM.

What about the TGI [34] of the same compound?
Its TGI is over 10 µM.

And the TGI [35]?
Its TGI is over 10 µM.

What about the TGI [36] of the same compound?
Its TGI is over 10 µM.

And the TGI [37]?
The TGI was over 10 µM.

What about the TGI [38] of the same compound?
Its TGI is over 10 µM.

What about the TGI [39] of the same compound?
The TGI was over 10 µM.

And the TGI [40]?
Its TGI is over 10 µM.

What about the TGI [41] of the same compound?
Its TGI is over 10 µM.

And the TGI [42]?
The TGI was over 10 µM.

And the TGI [43]?
Its TGI is over 10 µM.

What about the TGI [44] of the same compound?
The TGI was over 10 µM.

What about the TGI [45] of the same compound?
Its TGI is over 10 µM.

And the TGI [46]?
The TGI was over 10 µM.

And the TGI [47]?
Its TGI is over 10 µM.

And the TGI [48]?
The TGI was over 10 µM.

What about the TGI [49] of the same compound?
The TGI was over 10 µM.

What about the TGI [50] of the same compound?
The TGI was over 10 µM.

And the TGI [59]?
The TGI was over 10 µM.

And the TGI [51]?
Its TGI is over 10 µM.

What about the TGI [52] of the same compound?
Its TGI is over 10 µM.

What about the TGI [53] of the same compound?
The TGI was over 10 µM.

What about the TGI [54] of the same compound?
Its TGI is over 10 µM.

What about the TGI [55] of the same compound?
Its TGI is over 10 µM.

What about the TGI [56] of the same compound?
The TGI was over 10 µM.

What about the TGI [57] of the same compound?
The TGI was over 10 µM.
